Source: patent US20130012389A1, “Substituted Pyridazines Having Herbicidal Action” (BASF SE, priority 2010, published 2013)

Experiments:
AMARE = assay: greenhouse experiment, post-emergence treatment, herbicidal activity against AMARE; type: in vivo, Amaranthus retroflexus; conditions: application rate 0.5 kg/ha, post-emergence method; scale from 0 to 100
Source text: (§1) The seeds of the test plants were sown separately for each species. For the post-emergence treatment, the test plants were first grown to a height of 3 to 15 cm, depending on the plant habit, and only then treated with the active ingredients which had been suspended or emulsified in water. For this purpose, the test plants were either sown directly and grown in the same containers, or they were first grown separately as seedlings and transplanted into the test containers a few days prior to treatment. Depending on the species, the plants were kept at 10-25° C. or 20-35° C. The test period extended over 2 to 4 weeks. During this time, the plants were tended, and their response to the individual treatments was evaluated. Evaluation was carried out using a scale from 0 to 100. 100 means no emergence of the plants, or complete destruction of at least the aerial moieties, and 0 means no damage, or normal course of growth. A good herbicidal activity is given at values of at least 70 and a very good herbicidal activity is given at values of at least 85. The plants used in the greenhouse experiments belonged to the following species: [table]

CHEAL = assay: greenhouse experiment, post-emergence treatment, herbicidal activity against CHEAL; type: in vivo, Chenopodium album; conditions: application rate 0.5 kg/ha, post-emergence method; scale from 0 to 100
Source text: as §1

O=c1oc2nccnc2c(O)c1-c1cc(Cl)cc(N2CCOCC2)c1C(F)(F)F [1-4, 7-[5-chloro-3-morpholino-2-(trifluoromethyl)phenyl]-8-hydroxy-pyrano[2,3-b]pyrazin-6-one]
herbicidal activity against AMARE (AMARE): very good herbicidal activity (a very good herbicidal activity is given at values of at least 85) | herbicidal activity against CHEAL (CHEAL): very good herbicidal activity (a very good herbicidal activity is given at values of at least 85)
